Article PMC6385203, “Mutations in the palm domain disrupt modulation of acid-sensing ion channel 1a currents by neuropeptides” (Scientific Reports, 2019)
Peptide text beside a SMILES is read from it.

Target: T1, WT ASIC1a (Homo sapiens, UniProt P78348)
T1 construct: expressed in transfected cells; host or cells: Xenopus laevis oocytes injected with cRNA
T1 sequence (P78348 1-528 G212D): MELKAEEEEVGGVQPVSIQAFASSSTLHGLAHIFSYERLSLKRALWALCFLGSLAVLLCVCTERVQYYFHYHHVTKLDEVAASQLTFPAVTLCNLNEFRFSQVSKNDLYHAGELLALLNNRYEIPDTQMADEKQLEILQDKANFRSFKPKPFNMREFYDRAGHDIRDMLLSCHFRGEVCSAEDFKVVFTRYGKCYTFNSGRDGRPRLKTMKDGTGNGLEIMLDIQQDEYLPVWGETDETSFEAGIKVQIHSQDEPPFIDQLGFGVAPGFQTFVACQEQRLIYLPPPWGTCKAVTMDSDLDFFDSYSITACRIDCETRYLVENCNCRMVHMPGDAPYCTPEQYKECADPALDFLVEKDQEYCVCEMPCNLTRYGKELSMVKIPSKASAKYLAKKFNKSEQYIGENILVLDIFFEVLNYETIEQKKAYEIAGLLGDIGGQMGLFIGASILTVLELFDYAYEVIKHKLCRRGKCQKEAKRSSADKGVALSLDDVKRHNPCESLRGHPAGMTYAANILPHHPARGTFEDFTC
Experiment: Disappearance of FRRFa-induced Isust on washout, WT
Assay type: cell-based
Conditions: WT in direct comparison with N416C; washout after 50 μM FRRFa 45 s; n = 4
Description: ASIC1a function was measured by two-electrode voltage-clamp after recombinant expression in Xenopus oocytes. The channels were activated by a pH5 stimulation solution from a conditioning solution of pH7.4. […] We measured the rate of FRRFa unbinding, as the disappearance of the sustained current after a 50-s incubation with 50 μM FRRFa, as 0.025 ± 0.005 s^−1 (n = 8, Fig. 2b). […] To determine the kinetics of FRRFa association on ASIC1a, we pre-applied the peptide at a concentration of 50 μM for different time periods in the conditioning solution and measured the sustained current fraction.
Figure 2 FRRFa modulation of ASIC1a currents is only partially affected by acidic pocket mutations. (a) FRRFa concentration-response curve. Top, representative current traces. Bottom, Isust/Ipeak ratio induced by pH5 as a function of the FRRFa concentration (pre-applied during 45–50 s and present in pH5 solution), n = 7–11. (b) Time course of disappearance of the FRRFa-induced Isust. FRRFa at 50 μM was applied for 45 s, and current was measured once every minute during washout with FRRFa-free solution. Exponential fit shown as solid line (n = 4, error bars are smaller than the symbols). (c) Time course of appearance of Isust. Oocytes were exposed for various durations to 50 μM FRRFa in the pH7.4 conditioning solution, before activation of ASIC currents with pH5, including 50 μM FRRFa. […]

N=C(N)NCCC[C@H](NC(=O)[C@H](CCCNC(=N)N)NC(=O)[C@@H](N)Cc1ccccc1)C(=O)N[C@@H](Cc1ccccc1)C(N)=O [FRRFa, Phe-Arg-Arg-Phe-amide] (H-FRRF-NH2)
koff: 0.029 ± 0.011 s⁻¹
